The source of these data is patent US20110028686A1, “Protein binding miniature proteins” (Yale University, priority 2000, published 2011).

Assay [1] addresses T1, HisKIX (His-tagged CBP KIX domain) (Mus musculus, UniProt P45481).
T1 construct: The CBP KIX-coding region (residues 586 to 672) of pGEX-KT KIX 10-672; made in house; host or cells: E. coli BL21(DE3) pArg
The assay can be described thus: Equilibrium fluorescence polarization, HisKIX binding. Conditions: 25° C. Background: Polarisation of emitted light reports the rotation of a fluorescent probe.

The subject of assay [2] is hsCRE24 (CRE half-site DNA, ATGAC). The assay can be described thus: Electrophoretic mobility shift assay, binding to hsCRE24 DNA. Conditions: for DNA binding: EMSA. As to the method: Miniature protein-binding to DNA was measured using an electrophoretic mobility shift assay performed in a Model SE600 Dual-Controller Vertical Slab Unit (Hoefer) using 14×16 cm gel plates. Temperature was controlled using a constant temperature bath. Reactions were performed in a binding buffer composed of 137 mM NaCl, 2.7 mM KCl, 4.3 mM Na2HPO4, 1.4 mM NaH2PO4 (pH 7.4), 1 mM EDTA, 0.1% NP-40, 0.4 mg/ml BSA (non-acetylated) and 5% glycerol. For experiments involving the bZIP peptide C/EBP152, the binding buffer was supplemented with 2 mM dithiothreitol. Serial peptide dilutions were performed as 1:1 dilutions with binding buffer. In general, 0.002 ml of gamma ^32P-labeled, double-stranded DNA (CRE24, hsCRE24, C/EBP24 or hsCEBP24; final concentration ≦50 pM in binding buffer; final concentration ≦5 pM for peptides with Kapp <500 pM) in binding buffer were added to 0.008 ml of a serial peptide dilution on ice. Peptide-DNA mixtures were incubated for thirty minutes on ice and then applied to a pre-equilibrated, native polyacrylamide gel (8% acrylamide:bisacrylamide) prepared in 10 mM Tris buffer (pH. 8.1). Gels were allowed to run 0.75 to 1.5 hours at 500 V and were dried on a Model SE1160 Drygel Sr. gel dryer (Hoefer). The gels were analyzed using a Storm 840 Phosphorimager (Molecular Dynamics). Amounts of free and bound DNA were quantified and analyzed using the program KaleidaGraph 3.0 (Synergy Software). Dissociation constants were determined by fitting the data to the Langmuir equation=c[(1+(Kapp/peptideT^n))^−1] where n=1 for PPEBP^SR and EBP^SR and n=2 for C/EBP152. In these equations, theta=cpm in protein-DNA complex/(cpm in protein-DNA complex+cpm free DNA); peptideT=the total peptide concentration and c is an adjustable parameter representing the maximum value of theta (c ≦1; for many peptides c was defined as 1). Values reported represent the average of at least three independent trials ±the standard error. Error bars on the plots represent the standard error for each data point.
(In general: Mobility shift assays separate free from complexed probe on a gel.)

Setting [3] is: fluorescein-labeled unphosphorylated peptide, read-out: Kd HisKIX, unphosphorylated peptide (U).
The mark [4] stands for this setting: label shows phosphorylated (P) or unphosphorylated (U) form, read-out: Kd HisKIX.
Setting [5] is: 4° C., read-out: affinity (Kd) for hsCRE.
[6] abbreviates: physiological ionic strength, read-out: equilibrium dissociation constant (Kd) of binding to hsCRE.

Where two headings read alike, the source gives them in different places. Peptide text beside a SMILES is read from it. * marks the point of attachment. Fluorescein(5-NHCOCH2) = O=C(C*)Nc1ccc2c(c1)C(=O)OC21c2ccc(O)cc2Oc2cc(O)ccc21

T1 sequence (P45481 586-672): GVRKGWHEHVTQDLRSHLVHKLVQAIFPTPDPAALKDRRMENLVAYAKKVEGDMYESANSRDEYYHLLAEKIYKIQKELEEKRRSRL

Consider `CC[C@H](C)[C@H](NC(=O)[C@H](Cc1ccc(O)cc1)NC(=O)[C@H](Cc1ccccc1)NC(=O)[C@H](Cc1ccccc1)NC(=O)[C@H](COP(=O)(O)O)NC(=O)[C@H](CC(C)C)NC(=O)[C@H](CCCNC(=N)N)NC(=O)[C@H](CCCNC(=N)N)NC(=O)[C@@H](NC(=O)[C@@H]1CCCN1C(=O)[C@H](C)NC(=O)[C@H](CC(=O)O)NC(=O)[C@H](CC(=O)O)NC(=O)CNC(=O)[C@H](Cc1c[nH]cn1)NC(=O)[C@H](Cc1ccc(O)cc1)NC(=O)[C@@H](NC(=O)[C@@H]1CCCN1C(=O)[C@H](Cc1c[nH]c2ccccc12)NC(=O)[C@H](CO)NC(=O)[C@H](CC(C)C)NC(=O)CN)[C@@H](C)O)C(C)C)C(=O)N[C@@H](CC(C)C)C(=O)N[C@@H](CC(C)C)C(=O)N[C@@H](CC(=O)O)C(=O)N[C@@H](CC(C)C)C(=O)N[C@@H](Cc1ccc(O)cc1)C(=O)N[C@@H](CC(C)C)C(=O)N[C@@H](CC(=O)O)C(=O)N[C@@H](C)C(=O)N1CCC[C@H]1C(=O)NCC(=O)N[C@H](C(=O)N[C@@H](CSCC(=O)Nc1ccc2c(c1)C(=O)OC21c2ccc(O)cc2Oc2cc(O)ccc21)C(N)=O)C(C)C` [PPKID5], for which the Kd – broadly, the concentration at which binding is half-saturated – in assay [1] (fluorescein-labeled phosphopeptide, read-out: Kd HisKIX, phosphorylated peptide (P)) was 534 ± 31 nM; in assay [1] (setting [3]), 6600 ± 2000 nM.

Take `CC[C@H](C)[C@H](NC(=O)CN)C(=O)N[C@@H](CO)C(=O)N[C@@H](Cc1c[nH]c2ccccc12)C(=O)N1CCC[C@H]1C(=O)N[C@H](C(=O)N[C@@H](Cc1ccccc1)C(=O)N[C@@H](CCC(=O)O)C(=O)NCC(=O)N[C@@H](CC(=O)O)C(=O)N[C@@H](CC(=O)O)C(=O)N[C@@H](C)C(=O)N1CCC[C@H]1C(=O)N[C@H](C(=O)N[C@@H](CCCNC(=N)N)C(=O)N[C@@H](CCCNC(=N)N)C(=O)N[C@@H](CC(C)C)C(=O)N[C@@H](CCC(=O)O)C(=O)N[C@@H](Cc1ccccc1)C(=O)N[C@@H](Cc1ccccc1)C(=O)N[C@@H](Cc1ccc(O)cc1)C(=O)N[C@H](C(=O)N[C@@H](CC(C)C)C(=O)N[C@@H](CC(C)C)C(=O)N[C@@H](CC(=O)O)C(=O)N[C@@H](CC(C)C)C(=O)N[C@@H](Cc1ccc(O)cc1)C(=O)N[C@@H](CC(C)C)C(=O)N[C@@H](CC(=O)O)C(=O)N[C@@H](C)C(=O)N1CCC[C@H]1C(=O)NCC(=O)N[C@H](C(=O)N[C@@H](CSCC(=O)Nc1ccc2c(c1)C(=O)OC21c2ccc(O)cc2Oc2cc(O)ccc21)C(N)=O)C(C)C)[C@@H](C)CC)C(C)C)[C@@H](C)O` [PPKID6 S18E] (H-GISWPTFEGDDAPVRRLEFFYILLDLYLDAPGVC(Fluorescein(5-NHCOCH2))-NH2): the Kd in assay [1] (setting [3]) is 10900 ± 2000 nM.

Regarding `CC[C@H](C)[C@H](NC(=O)[C@H](Cc1ccc(O)cc1)NC(=O)[C@H](Cc1ccccc1)NC(=O)[C@H](Cc1ccccc1)NC(=O)[C@H](CO)NC(=O)[C@H](CC(C)C)NC(=O)[C@H](CCCNC(=N)N)NC(=O)[C@H](CCCNC(=N)N)NC(=O)[C@@H](NC(=O)[C@@H]1CCCN1C(=O)[C@H](C)NC(=O)[C@H](CC(=O)O)NC(=O)[C@H](CC(=O)O)NC(=O)CNC(=O)[C@H](Cc1c[nH]c2ccccc12)NC(=O)[C@H](CCC(=O)O)NC(=O)[C@@H](NC(=O)[C@H](Cc1ccc(O)cc1)NC(=O)[C@@H]1CCCN1C(=O)[C@H](CO)NC(=O)[C@H](CC(C)C)NC(=O)CN)[C@@H](C)O)C(C)C)C(=O)N[C@@H](CC(C)C)C(=O)N[C@@H](CC(C)C)C(=O)N[C@@H](CC(=O)O)C(=O)N[C@@H](CC(C)C)C(=O)N[C@@H](Cc1ccc(O)cc1)C(=O)N[C@@H](CC(C)C)C(=O)N[C@@H](CC(=O)O)C(=O)N[C@@H](C)C(=O)N1CCC[C@H]1C(=O)NCC(=O)N[C@H](C(=O)N[C@@H](CSCC(=O)Nc1ccc2c(c1)C(=O)OC21c2ccc(O)cc2Oc2cc(O)ccc21)C(N)=O)C(C)C` [PPKID7] (H-GLSPYTEWGDDAPVRRLSFFYILLDLYLDAPGVC(Fluorescein(5-NHCOCH2))-NH2), the Kd was 2300 ± 200 nM in assay [1] (setting [3]) and 1500 to 3100 nM in assay [1] (setting [4]).

Take `CC[C@H](C)[C@H](NC(=O)[C@H](Cc1ccc(O)cc1)NC(=O)[C@H](Cc1ccccc1)NC(=O)[C@H](Cc1ccccc1)NC(=O)[C@H](CO)NC(=O)[C@H](CC(C)C)NC(=O)[C@H](CCCNC(=N)N)NC(=O)[C@H](CCCNC(=N)N)NC(=O)[C@@H](NC(=O)[C@@H]1CCCN1C(=O)[C@H](C)NC(=O)[C@H](CC(=O)O)NC(=O)[C@H](CC(=O)O)NC(=O)CNC(=O)[C@@H]1CCCN1C(=O)[C@H](CC(=O)O)NC(=O)[C@@H](NC(=O)[C@H](CCCCN)NC(=O)[C@H](Cc1c[nH]c2ccccc12)NC(=O)[C@H](CO)NC(=O)[C@H](CC(C)C)NC(=O)CN)[C@@H](C)O)C(C)C)C(=O)N[C@@H](CC(C)C)C(=O)N[C@@H](CC(C)C)C(=O)N[C@@H](CC(=O)O)C(=O)N[C@@H](CC(C)C)C(=O)N[C@@H](Cc1ccc(O)cc1)C(=O)N[C@@H](CC(C)C)C(=O)N[C@@H](CC(=O)O)C(=O)N[C@@H](C)C(=O)N1CCC[C@H]1C(=O)NCC(=O)N[C@H](C(=O)N[C@@H](CSCC(=O)Nc1ccc2c(c1)C(=O)OC21c2ccc(O)cc2Oc2cc(O)ccc21)C(N)=O)C(C)C` [PPKID8] (H-GLSWKTDPGDDAPVRRLSFFYILLDLYLDAPGVC(Fluorescein(5-NHCOCH2))-NH2): the Kd in assay [1] (setting [3]) was 3100 ± 500 nM; in assay [1] (setting [4]), 1500 to 3100 nM.

With “DPAALKRARNTEAARRSRARKLQRMQC [G27, reference compound]”, in assay [2], the “stability of hsCRE24 complex lower than that of PPBR4^SR-hsCRE24 complex” value is 3.1 kcal/mol and the “DNA binding at 25° C.” value is “Neither PPBR4 nor G27 showed evidence of DNA binding”. The Kd in assay [2] (setting [5]) was 410 ± 53 nM.

For “GPSQPTYPGDDAPVEDLKRFRNTLAARRSRARKAARAAA [PPBR4^SR]”, in assay [2], the “delta, delta-G, hsCRE24 in preference to hsCEBP24” value is -4.4 kcal/mol; the “ratio of protein concentrations required to bind one-half of the two DNA” value worked out at 2600; the “DNA binding at 25° C.” value is “Neither PPBR4 nor G27 showed evidence of DNA binding”. Also, the “delta, delta-G of discrimination against mutations at the 5′ terminus of hsCRE” value in assay [2] (4° C.) was -1.7 kcal/mol. Also, the Kd in assay [2] (setting [5]) amounted to 1.9 ± 0.2 nM. The “specificity ratio Krel, hsCRE24 in preference to hsCEBP24” value in assay [2] (Krel (Kd(hsCRE)/Kd(hsCEPB))) came to 2600. Also, the “formation of the hsCRE24 complex in presence of competitor DNA” value in assay [2] (high concentrations of poly (dIdC)-(dIdC) or a scrambled CRE site (NON)) is “unaffected”. In assay [2] (setting [6]), the Kd amounted to 1.5 nM.

As to “GPSQPTYPGDDAPVEDLKRFRNTLAARRSRARKLQRMKQ [PPBR2^SR]”, in assay [2] (setting [6]), the dissociation constant (Kd) was 5 nM.

For “PPBR10^SR: polyproline helix-basic region peptide, SEQ ID NO: 9 (GPSQPTYPGDDAPVEDLKRFRNTLAAYLSRLRKAARAAA; Pancreatic polypeptide basic region PPBR10)”, the DNA binding result in assay [2] is reported as “No significant DNA binding was detected”.

On to “PPBR11^SR: polyproline helix-basic region peptide, SEQ ID NO: 10 (GPSQPTYPGDDAPVEDLKRFRNTLAARLSRLRKAARAAA; Pancreatic polypeptide basic region PPBR11)”, for which the DNA binding result in assay [2] was “No significant DNA binding was detected”.

As to “PPBRO^SR: polyproline helix-basic region peptide, SEQ ID NO: 8, lacking DNA-contact residue(s) (GPSQPTYPGDDAPVEDLKRFRNTLAAYLSVVRKLQRMKQ; Pancreatic polypeptide basic region PPBR0)”, the DNA binding result in assay [2] is recorded as “No significant DNA binding was detected”.
